Data set [1] deals with chronic lymphocytic leukemia (CLL) cells. Put plainly: CLL cell killing assay (annexin V / propidium iodide flow cytometry, 24 h). The conditions noted are these: primary CLL cells. The format is cell-based, human. The protocol: Biological Activity of 2-Amino Pateamine Derivatives Peripheral blood from the CLL patients were collected in heparin vacutainer tubes and centrifuged at 1500 rpm for 15 min to separate the plasma. The plasma (upper layer) was removed and saved for cell culture. The lower layer was diluted with phosphate-buffered saline (PBS), and the mononuclear cells were isolated by Ficoll density-gradient centrifugation. The isolated CLL cells were cultured at 1×10^7 cells/mL in RPMI 1640 medium containing 10% of fetal bovine serum, 10% autologous plasma, or 50% autologous plasma. Cell death in CLL lymphocytes was evaluated by flow cytometry analysis using annexin V and propidium iodide (PI) double staining. After incubation with increasing concentrations of PatA analogs for 24 hours, CLL cells (1×10^6 cells) were stained in 100 μL binding buffer with 5 μL annexin-Cy5, and incubated for 15 minutes in dark at room temperature. After staining, 300 μL binding buffer with 5 μL of 50 μg/mL propidium iodide were added to each tube. Samples were analyzed immediately by flow cytometer. Cells stained positive for either annexin V or PI were considered dead cells. The IC50 values of CLL killing were determined by non-linear fitting of the survival curve by the GraphPad Prism software.

Data set [2] has as its system P388 murine leukemia cells. The conditions noted are these: read-out: IC50, cytotoxic activity against P388 murine leukemia cells; cited from earlier work.
The mark [3] stands for this setting: CLL cell, RPMI 1640 with 10% autologous (human) plasma, read-out: IC50 CLL Assay, 10% plasma.
Setting [4] is: Homo sapiens, CLL cell, RPMI 1640 with 10% fetal bovine serum, read-out: IC50 CLL Assay, 10% FBS.
Setting [5] is: RPMI 1640 with 10% autologous (human) plasma, read-out: IC50 CLL Assay, 10% plasma.
The mark [6] stands for this setting: RPMI 1640 with 10% fetal bovine serum, read-out: IC50 CLL Assay, 10% FBS.
Where [7] appears, read: CLL cell, RPMI 1640 with 50% autologous (human) plasma, read-out: IC50 CLL Assay, 50% plasma.

Where two headings read alike, the source gives them in different places.

`CC(/C=C/C(C)=C/[C@@H]1Cc2nc(cs2)CCC[C@H](N)C(=O)O[C@@H](C)C/C(C)=C/C=C\C(=O)O1)=C\CN(C)C` [MZ577, (12Z,3S,6Z,8E,11S,14S)-14-Amino-3-((1E,3E,5E)-7-(dimethylamino)-2,5-dimethylhepta-1,3,5-trien-1-yl)-9,11-dimethyl-4,12-dioxa-1(2,4)-thiazolacycloheptadecaphane-6,8-diene-5,13-dione]: the IC50 is 6360 nM in data set [1] (setting [3]) and 3010 nM in data set [1] (setting [4]).

Turning to `CC(/C=C/C(C)=C/[C@@H]1Cc2nc(cs2)CCC[C@H](NS(C)(=O)=O)C(=O)O[C@@H](C)C/C(C)=C/C=C\C(=O)O1)=C\CN(C)C` [MZ624, N-((1^2Z,3S,6Z,8E,11 S,14S)-3-((1E,3E,5E)-7-(dimethylamino)-2,5-dimethylhepta-1,3,5-trien-1-yl)-9,11-dimethyl-5,13-dioxo-4,12-dioxa-1(2,4)-thiazolacycloheptadecaphane-6,8-dien-14-yl) methanesulfonamide], the results for the half-inhibitory concentration (IC50) in data set [1] (setting [3]) and in data set [1] (setting [4]) were 650 nM and 370 nM, respectively.

Take `C/C(Br)=C\[C@@H]1Cc2nc(cs2)CCC[C@H](NC(=O)C(F)(F)F)C(=O)O[C@@H](C)C/C(C)=C/C=C\C(=O)O1` [MZ569b, N-((1^2Z,3S,6Z,8E,11S,14S)-3-((E)-2-Bromoprop-1-en-1-yl)-9,11-dimethyl-5,13-dioxo-4,12-dioxa-1 (2,4)-thiazolacycloheptadecaphane-6,8-dien-1^4-yl)-2,2,2-trifluoroacetamide]: the IC50 in data set [1] (setting [3]) and in data set [1] (setting [4]) was more than 10000 nM throughout.

With “1,1,1-Trichloro-2-methylpropan-2-yl ((1^2Z,3S,6Z,8E,11S,14R)-3-((1E,3E,5E)-7-(dimethylamino)-2,5-dimethylhepta-1,3,5-trien-1-yl)-9,11-dimethyl-5,13-dioxo-4,12-dioxa-1 (2,4)-thiazol acycloheptadecaphane-6,8-dien-14-yl)carbamate [MZ756]”, the figures for the IC50 in data set [1] (setting [5]) and in data set [1] (setting [6]) were 5610 nM and 1890 nM, respectively.

For `CC(Br)=CC1Cc2nc(cs2)CCCC(NC(=O)OC(C)(C)C(Cl)(Cl)Cl)C(=O)OC(C)CC(C)=CC=CC(=O)O1` [MZ569a, 1,1,1-Trichloro-2-methylpropan-2-yl ((1^2Z,3S,6Z,8E,11S,14S)-3-((E)-2-bromoprop-1-en-1-yl)-9,11-dimethyl-5,13-dioxo-4,12-dioxa-1(2,4)-thiazolacycloheptadecaphane-6,8-dien-1^4-yl) carbamate], the IC50 in data set [1] (setting [5]) and in data set [1] (setting [6]) was more than 10000 nM in each case.

Regarding `CC(/C=C/C(C)=C/[C@@H]1Cc2nc(cs2)[C@@H](C)C[C@@H](N)CC(=O)O[C@@H](C)C/C(C)=C/C=C\C(=O)O1)=C\CN(C)C` [PatA, Pateamine A], the 50% inhibitory concentration (IC50) was 0.27 nM in data set [2], 160 nM in data set [1] (setting [3]), 470 nM in data set [1] (setting [7]) and 150 nM in data set [1] (setting [4]).

As for `CC(/C=C/C(C)=C/[C@@H]1Cc2nc(cs2)CCC[C@H](NC(=O)C(F)(F)F)C(=O)O[C@@H](C)C/C(C)=C/C=C\C(=O)O1)=C\CN(C)C` [MZ579, N-((1^2Z,3S,6Z,8E,11S,14S)-3-((1E,3E,5E)-7-(dimethylamino)-2,5-dimethylhepta-1,3,5-trien-1-yl)-9,11-dimethyl-5,13-dioxo-4,12-dioxa-1(2,4)-thiazolacycloheptadecaphane-6,8-dien-14-yl)-2,2,2-trifluoroacetamide], the figures for the concentration for half-maximal inhibition (IC50) in data set [1] (setting [3]), in data set [1] (setting [7]) and in data set [1] (setting [4]) were 1790 nM, 7180 nM and 550 nM, respectively.

As for `CC(=O)N[C@@H]1CCCc2csc(n2)C[C@@H](/C=C(C)/C=C/C(C)=C/CN(C)C)OC(=O)/C=C\C=C(/C)C[C@H](C)OC1=O` [MZ757, N-((1^2Z,3S,6Z,8E,11S,14R)-3-((1E,3E,5E)-7-(dimethylamino)-2,5-dimethylhepta-1,3,5-trien-1-yl)-9,11-dimethyl-5,13-dioxo-4,12-dioxa-1(2,4)-thiazolacycloheptadecaphane-6,8-dien-14-yl) acetamide], the results for the concentration for half-maximal inhibition (IC50) in data set [1] (setting [3]) and in data set [1] (setting [4]) were 450 nM and less than 50 nM, respectively.

Turning to `CC(=O)N[C@H]1CCCc2csc(n2)C[C@@H](/C=C(C)/C=C/C(C)=C/CN(C)C)OC(=O)/C=C\C=C(/C)C[C@H](C)OC1=O` [MZ623, N-((1^2Z,3S,6Z,8E,11S,14S)-3-((1E,3E,5E)-7-(dimethylamino)-2,5-dimethylhepta-1,3,5-trien-1-yl)-9,11-dimethyl-5,13-dioxo-4,12-dioxa-1(2,4)-thiazolacycloheptadecaphane-6,8-dien-14-yl) acetamide], the half-inhibitory concentration (IC50) in data set [1] (setting [3]) worked out at 460 nM; in data set [1] (setting [4]) it was 310 nM.

For the compound `CC(C=CC(C)=CC1Cc2nc(cs2)CCCC(NC(=O)OC(C)(C)C(Cl)(Cl)Cl)C(=O)OC(C)CC(C)=CC=CC(=O)O1)=CCN(C)C` [MZ576, 1,1,1-Trichloro-2-methylpropan-2-yl((1^2Z,3S,6Z,8E,11 S,14S)-3-((1E,3E,5E)-7-(dimethylamino)-2,5-dimethylhepta-1,3,5-trien-1-yl)-9,11-dimethyl-5,13-dioxo-4,12-dioxa-1 (2,4)-thiazolacycloheptadecaphane-6,8-dien-14-yl)carbamate], the IC50 is 6690 nM in data set [1] (setting [5]) and 3200 nM in data set [1] (setting [6]).

Regarding `CC(/C=C/C(C)=C/[C@@H]1Cc2nc(cs2)CCC[C@H](NC(=O)OC(C)(C)C)C(=O)O[C@@H](C)C/C(C)=C/C=C\C(=O)O1)=C\CN(C)C` [MZ578, tert-Butyl ((1^2Z,3S,6Z,8E,11S,14S)-3-((1E,3E,5E)-7-(dimethylamino)-2,5-dimethylhepta-1,3,5-trien-1-yl)-9,11-dimethyl-5,13-dioxo-4,12-dioxa-1(2,4)-thiazolacycloheptadecaphane-6,8-dien-14-yl) carbamate], the results for the half-inhibitory concentration (IC50) in data set [1] (setting [3]), in data set [1] (setting [7]) and in data set [1] (setting [4]) were 2010 nM, 8120 nM and 830 nM, respectively.

On to `C/C(Br)=C\[C@@H]1Cc2nc(cs2)CCC[C@H](NC(=O)OC(C)(C)C)C(=O)O[C@@H](C)C/C(C)=C/C=C\C(=O)O1` [MZ554, tert-Butyl-((1^2Z,3S,6Z,8E,11S,14S)-3-((E)-2-bromoprop-1-en-1-yl)-9,11-dimethyl-5,13-dioxo-4,12-dioxa-1(2,4)-thiazolacycloheptadecaphane-6,8-dien-14-yl)carbamate], for which the 50% inhibitory concentration (IC50) in data set [1] (setting [3]) and in data set [1] (setting [4]) was more than 10000 nM in each case.
